Test results taken from patent US11155586B2, “Cystine knot scaffold platform” (Genentech, Inc., priority 2015, dated 2021).
Positions of bridges follow the written chain, without caps; N, C: chain ends. Residues, ends and D or L forms follow the SMILES beside them.

Biological target: T1, hVEGF-A (Homo sapiens, UniProt P15692)
T1 sequence (P15692 207-395): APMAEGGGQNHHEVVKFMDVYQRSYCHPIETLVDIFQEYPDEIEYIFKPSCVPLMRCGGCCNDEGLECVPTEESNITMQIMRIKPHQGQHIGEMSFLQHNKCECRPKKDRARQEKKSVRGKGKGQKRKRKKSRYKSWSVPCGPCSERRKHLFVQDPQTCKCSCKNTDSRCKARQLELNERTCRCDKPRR
Assay: KDR-CHO VEGF assay to determine cellular IC50 (VEGF mediated Tyr phosphorylation of KDR)
Type: cell-based
Experimental: KDR-CHO cells (CHO cells stably transfected with gD tagged-KDR) were grown in cell growth medium (DMEM/Ham's F-12, 10% diafiltered FBS (GIBCO catalog no. 26400), 25 mM HEPES, 2 mM L-GLUTAMAX™). For VEGF stimulation assay, 5×10^4 cells/well were plated in 100 μl of cell plating medium (DMEM/Ham's F-12, 0.2% BSA, 0.25% diafiltered FBS, 25 mM HEPES, 2 mM L-GLUTAMAX™) in 96-well tissue culture plate and incubated at 37° C. overnight. The medium was replaced with 100 I1 of serum-free cell stimulation medium (DMEM/Ham's F-12, 0.5% BSA, 25 mM HEPES) and cells were incubated at 37° C. for 2 hr. One hour before stimulation, the medium was replaced with 50 I1 of serum-free cell stimulation medium. Concurrently, VEGF (50 ng/ml for hVEGF, 100 ng/ml for mVEGF and rVEGF) was pre-incubated with titrated amount of CKP or anti-VEGF in 50 μl of serum-free cell stimulation medium at 37° C. for 1 hour and added to the cells. The cells were stimulated for 15 min at 37 C and the medium is removed. The cells were lysed with 130 I1 of ice-cold cell lysis buffer (150 mM NaCl, 50 mM HEPES, 0.5% Triton-X 100, HALT protease and phosphatase inhibitor cocktail (ThermoFisher Scientific, Inc. catalog no. 78444), 5 mM EDTA). VEGF mediated Tyr phosphorylation of KDR was determined by ELISA-based assay. Briefly, MAXISORP™ 96 well plates (ThermoFisher Scientific, Inc. catalog no. 439454) were coated with 100 I1 of anti-gD antibody diluted in PBS (1 μg/ml) at 4° C. overnight and washed three times with washing buffer (PBS, 0.05% TWEEN®20, pH 7.4). The plates were blocked with 300 I1 of blocking buffer (PBS, 0.5% BSA) at room temperature for 1 hour followed by washing three times with washing buffer. The above KDR-CHO cell lysate (100 μl) was added to each well and incubated at room temperature for 2 hours. The plates were washed four times with washing buffer followed by incubation with 100 I1 of 0.5 μg/ml biotin-conjugated anti-phosphotyrosine (clone 4G10, Millipore catalog no. 16-103) in blocking buffer at room temperature for 2 hours. After washing four times, the plates were incubated with 100 I1 of HRP-conjugated streptavidin in blocking buffer at room temperature for 30 min. After washing four times, the plates were developed with 100 I1 of TMB substrate (BD Biosciences) at room temperature for 20-30 min and stopped by addition of 50 μl of H2SO4 solution. The optical density of each well was determined using a microplate reader set to 450 nm.

Row | SMILES | FOLD IMPROVEMENT RELATIVE TO VARIANT 9.54.90 (Table 36, from cellular IC50) | FOLD IMPROVEMENT RELATIVE TO VARIANT 9.54.90 (Table 38, from cellular IC50)
1 | CC[C@H](C)[C@H](NC(=O)[C@@H]1CSSC[C@H](NC(=O)CN)C(=O)N[C@@H](CC(N)=O)C(=O)N[C@@H]([C@@H](C)CC)C(=O)N[C@@H](CCSC)C(=O)N[C@@H](CC(C)C)C(=O)N2CCC[C@H]2C(=O)N[C@@H](Cc2ccccc2)C(=O)N[C@@H](Cc2c[nH]c3ccccc23)C(=O)NCC(=O)N[C@H]2CSSC[C@H](NC(=O)[C@H](CCC(=O)O)NC(=O)[C@H](Cc3ccccc3)NC(=O)[C@H](CC(=O)O)NC(=O)[C@H](CCCNC(=N)N)NC(=O)CNC2=O)C(=O)N[C@@H](CCSC)C(=O)N[C@@H](CO)C(=O)N[C@@H](CC(=O)O)C(=O)N1)C(=O)N[C@H]1CSSC[C@@H](C(=O)NCC(=O)O)NC(=O)[C@H](CO)NC(=O)[C@H](CCC(N)=O)NC(=O)[C@H](Cc2ccc(O)cc2)NC(=O)[C@H](Cc2ccc(O)cc2)NC(=O)[C@H](CCC(N)=O)NC1=O [9.54.90.12] (H-GCNIMLPFWGCGRDFECMSDCICQYYQSCG-OH; disulfide 2-21, 11-17, 23-29; N-terminus and C-terminus assumed) | 1.125 | –
2 | CC[C@H](C)[C@H](NC(=O)[C@@H]1CSSC[C@H](NC(=O)CN)C(=O)N[C@@H](CC(N)=O)C(=O)N[C@@H]([C@@H](C)CC)C(=O)N[C@@H](CCSC)C(=O)N[C@@H](CC(C)C)C(=O)N2CCC[C@H]2C(=O)N[C@@H](Cc2ccc(O)cc2)C(=O)N[C@@H](Cc2c[nH]c3ccccc23)C(=O)NCC(=O)N[C@H]2CSSC[C@H](NC(=O)[C@H](CCC(=O)O)NC(=O)[C@H](Cc3ccccc3)NC(=O)[C@H](CC(=O)O)NC(=O)[C@H](CCCNC(=N)N)NC(=O)CNC2=O)C(=O)N[C@@H](CCSC)C(=O)N[C@@H](CC(N)=O)C(=O)N[C@@H](CCC(N)=O)C(=O)N1)C(=O)N[C@H]1CSSC[C@@H](C(=O)NCC(=O)O)NC(=O)[C@H](CO)NC(=O)[C@H](CCC(N)=O)NC(=O)[C@H](Cc2ccc(O)cc2)NC(=O)[C@H](Cc2ccc(O)cc2)NC(=O)[C@H](CCC(N)=O)NC1=O [9.54.90.13.F8Y] (H-GCNIMLPYWGCGRDFECMNQCICQYYQSCG-OH; disulfide 2-21, 11-17, 23-29; N-terminus and C-terminus assumed) | – | 0.67
3 | CC[C@H](C)[C@H](NC(=O)[C@@H]1CSSC[C@H](NC(=O)CN)C(=O)N[C@@H](CC(N)=O)C(=O)N[C@@H]([C@@H](C)CC)C(=O)N[C@@H](CCSC)C(=O)N[C@@H](CC(C)C)C(=O)N2CCC[C@H]2C(=O)N[C@@H](Cc2ccccc2)C(=O)N[C@@H](Cc2c[nH]c3ccccc23)C(=O)NCC(=O)N[C@H]2CSSC[C@H](NC(=O)[C@H](CCC(=O)O)NC(=O)[C@H](Cc3ccccc3)NC(=O)[C@H](CC(=O)O)NC(=O)[C@H](CCCNC(=N)N)NC(=O)CNC2=O)C(=O)N[C@@H](CCSC)C(=O)N[C@@H](CC(N)=O)C(=O)N[C@@H](CCC(N)=O)C(=O)N1)C(=O)N[C@H]1CSSC[C@@H](C(=O)NCC(=O)O)NC(=O)[C@H](CO)NC(=O)[C@H](CCC(N)=O)NC(=O)[C@H](Cc2ccc(O)cc2)NC(=O)[C@H](Cc2ccc(O)cc2)NC(=O)[C@H](CCC(N)=O)NC1=O [9.54.90.13] (H-GCNIMLPFWGCGRDFECMNQCICQYYQSCG-OH; disulfide 2-21, 11-17, 23-29; N-terminus and C-terminus assumed) | 1.41 | 1.41
4 | CC[C@H](C)[C@H](NC(=O)[C@@H]1CSSC[C@H](NC(=O)CN)C(=O)N[C@@H](CC(N)=O)C(=O)N[C@@H]([C@@H](C)CC)C(=O)N[C@@H](CCSC)C(=O)N[C@@H](CC(C)C)C(=O)N2CCC[C@H]2C(=O)N[C@@H](Cc2ccccc2)C(=O)N[C@@H](Cc2c[nH]c3ccccc23)C(=O)NCC(=O)N[C@H]2CSSC[C@H](NC(=O)[C@H](CCC(=O)O)NC(=O)[C@H](Cc3ccccc3)NC(=O)[C@H](CC(=O)O)NC(=O)[C@H](CCCNC(=N)N)NC(=O)CNC2=O)C(=O)N[C@@H](CCSC)C(=O)N[C@@H](CCC(N)=O)C(=O)N[C@@H]([C@@H](C)O)C(=O)N1)C(=O)N[C@H]1CSSC[C@@H](C(=O)NCC(=O)O)NC(=O)[C@H](CO)NC(=O)[C@H](CCC(N)=O)NC(=O)[C@H](Cc2ccc(O)cc2)NC(=O)[C@H](Cc2ccc(O)cc2)NC(=O)[C@H](CCC(N)=O)NC1=O [9.54.90.25] (H-GCNIMLPFWGCGRDFECMQTCICQYYQSCG-OH; disulfide 2-21, 11-17, 23-29; N-terminus and C-terminus assumed) | 1.07 | –
5 | CC[C@H](C)[C@@H]1NC(=O)[C@H](Cc2ccccc2)NC(=O)[C@@H]2CSSC[C@H](NC(=O)CNC(=O)[C@H](Cc3c[nH]c4ccccc34)NC(=O)[C@H](Cc3ccccc3)NC(=O)[C@@H]3CCCN3C(=O)[C@H](CC(C)C)NC(=O)[C@H](CCSC)NC(=O)[C@H]([C@@H](C)CC)NC(=O)[C@H](CC(N)=O)NC(=O)[C@@H](NC(=O)CN)CSSC[C@@H](C(=O)N[C@H](C(=O)N[C@H]3CSSC[C@@H](C(=O)NCC(=O)O)NC(=O)[C@H](CO)NC(=O)[C@H](CCC(N)=O)NC(=O)[C@H](Cc4ccc(O)cc4)NC(=O)[C@H](Cc4ccc(O)cc4)NC(=O)[C@H](CCC(N)=O)NC3=O)[C@@H](C)CC)NC(=O)[C@H](CC(N)=O)NC1=O)C(=O)NCC(=O)N[C@@H](CCCNC(=N)N)C(=O)N[C@@H](CC(=O)O)C(=O)N[C@@H](Cc1ccccc1)C(=O)N[C@@H](CCC(=O)O)C(=O)N2 [9.54.90.44] (H-GCNIMLPFWGCGRDFECFINCICQYYQSCG-OH; disulfide 2-21, 11-17, 23-29; N-terminus and C-terminus assumed) | 1.16 | –
6 | CC[C@H](C)[C@H](NC(=O)[C@@H]1CSSC[C@H](NC(=O)CN)C(=O)N[C@@H](CC(N)=O)C(=O)N[C@@H]([C@@H](C)CC)C(=O)N[C@@H](CCSC)C(=O)N[C@@H](CC(C)C)C(=O)N2CCC[C@H]2C(=O)N[C@@H](Cc2ccc(O)cc2)C(=O)N[C@@H](Cc2c[nH]c3ccccc23)C(=O)NCC(=O)N[C@H]2CSSC[C@H](NC(=O)[C@H](CCC(=O)O)NC(=O)[C@H](Cc3ccccc3)NC(=O)[C@H](CC(=O)O)NC(=O)[C@H](CCCNC(=N)N)NC(=O)CNC2=O)C(=O)N[C@@H](Cc2ccccc2)C(=O)N[C@@H](Cc2ccc(O)cc2)C(=O)N[C@@H](CCC(=O)O)C(=O)N1)C(=O)N[C@H]1CSSC[C@@H](C(=O)NCC(=O)O)NC(=O)[C@H](CO)NC(=O)[C@H](CCC(N)=O)NC(=O)[C@H](Cc2ccc(O)cc2)NC(=O)[C@H](Cc2ccc(O)cc2)NC(=O)[C@H](CCC(N)=O)NC1=O [9.54.90.62.F8Y] (H-GCNIMLPYWGCGRDFECFYECICQYYQSCG-OH; disulfide 2-21, 11-17, 23-29; N-terminus and C-terminus assumed) | – | 1.18
7 | CC[C@H](C)[C@H](NC(=O)[C@@H]1CSSC[C@H](NC(=O)CN)C(=O)N[C@@H](CC(N)=O)C(=O)N[C@@H]([C@@H](C)CC)C(=O)N[C@@H](CCSC)C(=O)N[C@@H](CC(C)C)C(=O)N2CCC[C@H]2C(=O)N[C@@H](Cc2ccccc2)C(=O)N[C@@H](Cc2c[nH]c3ccccc23)C(=O)NCC(=O)N[C@H]2CSSC[C@H](NC(=O)[C@H](CCC(=O)O)NC(=O)[C@H](Cc3ccccc3)NC(=O)[C@H](CC(=O)O)NC(=O)[C@H](CCCNC(=N)N)NC(=O)CNC2=O)C(=O)N[C@@H](Cc2ccccc2)C(=O)N[C@@H](Cc2ccc(O)cc2)C(=O)N[C@@H](CCC(=O)O)C(=O)N1)C(=O)N[C@H]1CSSC[C@@H](C(=O)NCC(=O)O)NC(=O)[C@H](CO)NC(=O)[C@H](CCC(N)=O)NC(=O)[C@H](Cc2ccc(O)cc2)NC(=O)[C@H](Cc2ccc(O)cc2)NC(=O)[C@H](CCC(N)=O)NC1=O [9.54.90.62] (H-GCNIMLPFWGCGRDFECFYECICQYYQSCG-OH; disulfide 2-21, 11-17, 23-29; N-terminus and C-terminus assumed) | 1.47 | 1.47
